# Measured values reported in article PMC8343220, “The selectivity of α‐adrenoceptor agonists for the human α1A, α1B, and α1D‐adrenoceptors” (Pharmacology Research & Perspectives, 2021).
# Where two headings read alike, the source gives them in different places.
# Assays:
# [1] = biological target: T1, human α1D‐adrenoceptor (full length) (Homo sapiens, UniProt P25100); assay: ERK1/2‐phosphorylation (Surefire Alphascreen), CHO‐α1D cells; format: cell-based; conditions: for ERK1/2‐phosphorylation Log EC50: CHO‐α1D cells, log values given negative
# T1 construct: human α1D‐adrenoceptor (full length) were used; expressed in transfected cells; host or cells: CHO-K1
# T1 sequence (P25100 1-572): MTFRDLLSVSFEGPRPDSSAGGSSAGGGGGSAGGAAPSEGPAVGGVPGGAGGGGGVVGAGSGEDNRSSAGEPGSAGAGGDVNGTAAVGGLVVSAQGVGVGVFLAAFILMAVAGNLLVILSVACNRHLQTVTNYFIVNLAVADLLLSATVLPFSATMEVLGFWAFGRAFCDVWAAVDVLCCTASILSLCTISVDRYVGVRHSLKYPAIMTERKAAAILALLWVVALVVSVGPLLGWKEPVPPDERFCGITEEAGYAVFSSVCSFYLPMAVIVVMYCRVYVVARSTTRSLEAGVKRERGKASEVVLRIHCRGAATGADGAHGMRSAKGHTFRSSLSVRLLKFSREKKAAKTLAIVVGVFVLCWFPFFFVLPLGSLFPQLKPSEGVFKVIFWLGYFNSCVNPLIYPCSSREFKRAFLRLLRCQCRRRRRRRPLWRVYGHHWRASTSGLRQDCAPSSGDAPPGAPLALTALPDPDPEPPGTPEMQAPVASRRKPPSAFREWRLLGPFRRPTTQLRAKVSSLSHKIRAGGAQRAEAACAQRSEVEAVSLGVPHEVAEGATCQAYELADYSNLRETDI
# [2] = biological target: T2, human α1B‐adrenoceptor (Homo sapiens, UniProt P35368); assay: ERK1/2‐phosphorylation (Surefire Alphascreen), CHO‐α1B cells; format: cell-based; conditions: for EC50: CHO‐α1B cells, for bi‐phasic responses the initial stimulatory part, read-out: ERK1/2‐phosphorylation Log EC50 (converted)
# T2 construct: expressed in transfected cells; host or cells: CHO-K1
# T2 sequence (P35368 1-520): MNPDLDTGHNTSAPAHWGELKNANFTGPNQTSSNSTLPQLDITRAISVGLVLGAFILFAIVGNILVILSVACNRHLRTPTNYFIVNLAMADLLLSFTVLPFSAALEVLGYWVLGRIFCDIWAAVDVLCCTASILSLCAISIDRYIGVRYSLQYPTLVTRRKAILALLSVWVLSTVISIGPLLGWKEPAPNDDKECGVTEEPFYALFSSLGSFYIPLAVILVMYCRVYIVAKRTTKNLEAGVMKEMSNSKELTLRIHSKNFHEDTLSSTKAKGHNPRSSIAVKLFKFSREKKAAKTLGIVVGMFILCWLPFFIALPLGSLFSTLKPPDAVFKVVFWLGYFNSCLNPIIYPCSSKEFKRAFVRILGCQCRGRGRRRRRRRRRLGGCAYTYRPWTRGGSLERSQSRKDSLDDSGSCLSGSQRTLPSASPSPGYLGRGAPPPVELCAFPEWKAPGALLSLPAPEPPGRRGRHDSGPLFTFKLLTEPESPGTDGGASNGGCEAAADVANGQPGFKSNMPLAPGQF
# [3] = tested on: parental CHO cell line without any transfected receptors; assay: ERK1/2‐phosphorylation, parent CHO cells without transfected receptors; format: cell-based, Chinese hamster; conditions: for ERK1/2-phosphorylation % PDBu: maximal response as % of PDBu (10μM) response
# [4] = biological target: T3, human α1A‐adrenoceptor (Homo sapiens, UniProt P35348); assay: Intracellular free calcium mobilization, CHO‐α1A cells; format: cell-based
# T3 construct: expressed in transfected cells; host or cells: CHO-K1
# T3 sequence (P35348 1-466): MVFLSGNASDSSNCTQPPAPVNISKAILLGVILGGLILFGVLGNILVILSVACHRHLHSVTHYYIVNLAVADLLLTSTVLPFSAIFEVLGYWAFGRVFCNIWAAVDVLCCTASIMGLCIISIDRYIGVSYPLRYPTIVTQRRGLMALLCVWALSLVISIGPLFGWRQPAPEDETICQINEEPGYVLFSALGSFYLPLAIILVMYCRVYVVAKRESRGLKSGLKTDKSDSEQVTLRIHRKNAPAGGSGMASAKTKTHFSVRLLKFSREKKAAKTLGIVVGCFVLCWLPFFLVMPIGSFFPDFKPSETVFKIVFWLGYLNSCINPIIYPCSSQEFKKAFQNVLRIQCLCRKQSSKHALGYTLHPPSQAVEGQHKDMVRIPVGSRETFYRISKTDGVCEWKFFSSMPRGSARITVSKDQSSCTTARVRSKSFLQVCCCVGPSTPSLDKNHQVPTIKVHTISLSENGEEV
# [5] = biological target: T3, human α1A‐adrenoceptor; assay: ERK1/2‐phosphorylation (Surefire Alphascreen), CHO‐α1A cells; format: cell-based
# [6] = biological target: T1, human α1D‐adrenoceptor (full length); assay: Intracellular free calcium mobilization, CHO‐α1D cells; format: cell-based; conditions: for Intracellular calcium release Log EC50: CHO‐α1D cells, log values given negative
# [7] = biological target: T3, human α1A‐adrenoceptor; assay: ^3H‐cAMP accumulation, CHO‐α1A cells; format: cell-based; conditions: CHO‐α1A cells
# [8] = biological target: T3, human α1A‐adrenoceptor; assay: ^3H‐cAMP accumulation in the presence of 10 μM forskolin, CHO‐α1A cells; format: cell-based; conditions: for cAMP accumulation (in presence of forskolin) Fold increase: fold increase of the forskolin response
# [9] = biological target: T2, human α1B‐adrenoceptor; assay: Intracellular free calcium mobilization, CHO‐α1B cells; format: cell-based; conditions: for EC50: CHO‐α1B cells, given as log EC50 (negative numbers), read-out: Intracellular calcium release Log EC50 (converted)
# [10] = biological target: T3, human α1A‐adrenoceptor; assay: ^3H‐prazosin whole‐cell radioligand binding, CHO‐α1A cells
# [11] = biological target: T2, human α1B‐adrenoceptor; assay: ^3H‐cAMP accumulation, CHO‐α1B cells; format: cell-based; conditions: CHO‐α1B cells; for cAMP accumulation % forskolin: % forskolin maximum response; for EC50: read-out: cAMP accumulation Log EC50 (converted)
# [12] = tested on: parental CHO cell line without any transfected receptors; assay: Forskolin‐stimulated cAMP accumulation, parent CHO cells without transfected receptors; format: cell-based, Chinese hamster; conditions: CHO cells without transfected receptors; in presence of forskolin
# [13] = biological target: T2, human α1B‐adrenoceptor; assay: ^3H‐cAMP accumulation in the presence of 10 μM forskolin, CHO‐α1B cells; format: cell-based; conditions: CHO‐α1B cells; for cAMP accumulation (in presence of forskolin) Fold increase: fold increase of the forskolin response; for EC50: in presence of forskolin, read-out: cAMP accumulation (in presence of forskolin) Log EC50 (converted)
# [14] = biological target: T2, human α1B‐adrenoceptor; assay: ^3H‐prazosin whole‐cell radioligand binding, CHO‐α1B cells; conditions: CHO‐α1B cells
# [15] = biological target: T1, human α1D‐adrenoceptor (full length); assay: ^3H‐prazosin whole‐cell radioligand binding, CHO‐α1D cells; conditions: for Kd: CHO‐α1D cells
# [16] = CHO cells without transfected receptors, mean ± s.e.m.
# [17] = CHO‐α1A cells, given as log EC50 (negative), read-out: Intracellular calcium release Log EC50 (converted)
# [18] = CHO‐α1A cells, 2–4 min, ^a bi‐phasic: initial stimulatory part, ^b also active in parent CHO cells, read-out: ERK1/2‐phosphorylation Log EC50 (converted)
# [19] = CHO‐α1A cells, 10 μM forskolin, read-out: cAMP accumulation (in presence of forskolin) Log EC50 (converted)
# [20] = Log KD α1B, ^3H‐prazosin whole cell binding, given as log KD (negative), mean ± SEM
# [21] = Log KD, ^3H‐prazosin binding, whole‐cell binding (from Table 1), given as log KD (negative numbers)
# [22] = Log KD α1A, ^3H‐prazosin whole cell binding, CHO‐α1A cells, given as log KD (negative), mean ± SEM
# [23] = 3H‐prazosin binding Log KD, whole‐cell binding (from Table 1), log values given negative
# [24] = Log KD α1D, ^3H‐prazosin whole cell binding, given as log KD (negative), mean ± SEM, 'early plateau' = specific binding not fully inhibited
Structure (SMILES),ERK1/2‐phosphorylation % PDBu [1],ERK1/2‐phosphorylation % PDBu [2],"ERK1/2-phosphorylation % PDBu [3, 16]",Intracellular calcium release % ionomycin [4],ERK1/2‐phosphorylation % PDBu [5],Intracellular calcium release % ionomycin [6],Intracellular calcium release % ionomycin [9],cAMP accumulation (in presence of forskolin) Log EC50 [12],ERK1/2‐phosphorylation Log EC50 [1],EC50 [2],Log efficacy ratio KD /EC50 [4],"EC50 [4, 17]","EC50 [5, 18]",Intracellular calcium release Log EC50 [6],"EC50 [8, 19]",cAMP accumulation (in presence of forskolin) Fold increase ([8]; CHO‐α1A cells),cAMP accumulation (in presence of forskolin) Fold increase [13],EC50 [13],"Kd [14, 20]","Kd [14, 21]",further results
CNCC(O)c1ccc(O)cc1 (stereo not drawn) [Synephrine],14.5 ± 2.8%,95.1 ± 8.7%,No response,55.4 ± 1.9%,87.4 ± 8.6%,16.3 ± 2.9%,57.5 ± 1.9%,No response,–,–,–,–,–,–,–,–,–,–,–,–,"EC50 [4]: 219 nM; EC50 [5]: 603 nM; cAMP accumulation % forskolin at 100 µM ([7]; response at 100 μM ligand, no EC50 obtained): 25.4 ± 3.4%; EC50 [8]: 7080 nM; Kd [10]: 55000 nM; cAMP accumulation % forskolin at 100 µM ([11]; response at 100 µM ligand (no EC50 given)): 23.2 ± 2.5%"
Brc1c(NC2=NCCN2)ccc2nccnc12 [Brimonidine],No response,41.2 ± 6.2%,–,47.8 ± 4.1%,86.4 ± 3.6%,No response,35.8 ± 2.4%,No response,No response,724 nM,1.57,117 nM,363 nM,No response,1580 nM,1.96 ± 0.05 fold,1.58 ± 0.07 fold,105 nM,20900 nM,20900 nM,"Emax at 100 µM ([3]; Cricetulus griseus, CHO, read-out: ERK1/2-phosphorylation % PDBu at 100μM): 2.3 ± 1.7%; EC50 ([7]; 5 h, read-out: cAMP accumulation Log EC50 (converted)): 5750 nM; cAMP accumulation % forskolin ([7]; % of 10 µM forskolin response): 17.8 ± 1.7%; Log efficacy ratio KD /EC50 [9]: 2.33; EC50 [9]: 97.7 nM; Affinity selectivity ratio α1A vs α1B [10]: 4.8 fold; Affinity selectivity ratio α1A vs α1D [10]: 1.2 fold; Kd [10, 22]: 4370 nM; cAMP accumulation % forskolin [11]: 4.5 ± 1.6%; EC50 [11]: 129 nM; Affinity selectivity ratio α1B vs α1D [15]: 3.9 fold; Kd [15, 23]: 5370 nM; Kd [15, 24]: 5370 nM"
Brc1c(NC2=NCCN2)ccc2nccnc12 [UK14304],No response,33.8 ± 5.0%,No response,45.6 ± 1.6%,88.7 ± 4.3%,No response,27.5 ± 1.8%,No response,No response,316 nM,1.64,67.6 nM,186 nM,No response,1380 nM,1.95 ± 0.09 fold,1.50 ± 0.05 fold,97.7 nM,12900 nM,12900 nM,"ERK1/2-phosphorylation Log EC50 [3, 16]: No response; cAMP accumulation % forskolin at 10 μM ([7]; response at 10 μM ligand, no EC50 obtained): 12.0 ± 1.1%; Log efficacy ratio KD /EC50 [9]: 2.26; EC50 [9]: 70.8 nM; Affinity selectivity ratio α1A vs α1B [10]: 4.4 fold; Affinity selectivity ratio α1A vs α1D [10]: 1.5 fold; Kd [10, 22]: 2950 nM; cAMP accumulation % forskolin [11]: 2.7 ± 0.1%; EC50 [11]: 95.5 nM; Affinity selectivity ratio α1B vs α1D [15]: 3.0 fold; Kd [15, 23]: 4370 nM; Kd [15, 24]: 4370 nM"
